Measurements from patent US8791132B2, “Compounds and methods for treatment of hypertension” (Medivation Technologies, Inc., priority 2011, dated 2014).
Where two headings read alike, the source gives them in different places. One block for each molecule: values may come before it.

How the values were obtained:
[1] = target: T1, human recombinant adrenergic α1D receptor (Homo sapiens, UniProt P25100); assay: Radioligand binding, adrenergic α1D ([3H]Prazosin); details: [3H]Prazosin
T1 construct: expressed in transfected cells; host or cells: HEK-293
T1 sequence (P25100 1-572): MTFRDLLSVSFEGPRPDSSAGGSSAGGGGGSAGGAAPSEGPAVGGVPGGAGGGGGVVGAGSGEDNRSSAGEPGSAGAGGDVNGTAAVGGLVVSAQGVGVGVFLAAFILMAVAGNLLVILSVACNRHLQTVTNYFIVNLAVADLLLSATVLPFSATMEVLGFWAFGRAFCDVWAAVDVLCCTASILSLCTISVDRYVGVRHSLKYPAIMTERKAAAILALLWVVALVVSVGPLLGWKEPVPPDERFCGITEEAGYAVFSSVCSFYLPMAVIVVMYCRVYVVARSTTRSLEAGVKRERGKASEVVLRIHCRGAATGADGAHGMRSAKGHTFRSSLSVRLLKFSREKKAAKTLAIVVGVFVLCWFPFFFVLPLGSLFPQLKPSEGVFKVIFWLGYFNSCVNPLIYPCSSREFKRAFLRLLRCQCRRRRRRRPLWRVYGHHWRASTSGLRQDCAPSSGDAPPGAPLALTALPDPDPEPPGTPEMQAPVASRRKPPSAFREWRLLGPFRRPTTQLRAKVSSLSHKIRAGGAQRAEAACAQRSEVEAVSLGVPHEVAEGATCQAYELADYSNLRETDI
Experimental: Compounds were incubated with 0.6 nM [3H]Prazosin for 60 min at 25° C. Non-specific binding was estimated in the presence of 10 μM phentolamine. Receptor proteins were filtered and washed, the filters were then counted to determine [3H]Prazosin specifically bound. […] Biochemical assay results are presented as the percent inhibition of specific binding in Table B1.

[2] = test system: spontaneously hypertensive rats (SHR); assay: Blood pressure in spontaneously hypertensive rat (SHR) model of hypertension; format: in vivo; details: for systolic blood pressure lowering effects: escalating doses 1, 3, 10 and 30 mg/kg/iv for every 30 minutes (FIGS. 20-22)
Experimental: Male spontaneously hypertensive rats (SHR), approximately 3 months of age and weighting approximately 250 grams were utilized. Free access to standard lab chow for rats and reverse osmosis (RO) water was granted. All aspects of this work, including housing, experimentation and disposal of animals were performed in general accordance with the Guide for the Care and Use of Laboratory Animals (National Academy Press, Washington, D.C., 1996).
The animals were anaesthetized with sodium pentobarbital (50 mg/kg IP). The left carotid artery when compound dosed orally (PO) or subcutaneously (SC); and both left carotid and femoral artery when compound dosed intravenous (i.v.) were cannulated with a polyethylene catheter (38 cm in length; PE60, Portex, Ltd.) connected with a polyurethane tubing (12 cm in length; PU-40, Cat. #BB520-40, Scientific Commodities, Inc.), which was tunneled under the skin and exited through the nape of the neck. The arterial cannula was connected to a pressure transducer through a swivel system, allowing free roaming during continuous recording of mean arterial pressure and heart rate. The animals were housed individually with food and water freely available during recovery. On the following day, the arterial cannula was connected via a Statham (P 23×L) pressure transducer to a NEC/San-Ei amplifier and data acquisition and analysis system (Power Lab 8/SP) for direct mean arterial pressure and heart rate measurements.
The test compounds, dissolved in sterile saline, were administered subcutaneously (SC) or orally (PO), or by intravenous (i.v.) bolus administration in two minutes or the escalating doses of compound administration in every 30 minutes, with each dose and its strength delivered over 2 minutes as shown in the respective figures; the internal standard phentolamine was given by oral gavage. The control group received vehicle alone. Immediately before (−10 min and −5 min) and at 15 min, 30 min, 1 hr, 1.5 hr, 2 hr, 2.5 hr, 3 hr, 3.5 hr, and 4 hr post-dosing, systolic pressure blood pressure values were recorded.

[3] = read-out: Percentage inhibition of ligand binding, Adrenergic α1D (0.1 μM), compound at 0.1 μM, repeat datapoints each shown
[4] = compound at 0.1 μM, repeat assays, each datapoint shown, read-out: Percentage inhibition of ligand binding, Adrenergic α1D
[5] = compound at 0.1 μM, repeat datapoints each shown, 0.1 µM
[6] = read-out: Percentage inhibition of ligand binding, Adrenergic α1D (0.03 μM), compound at 0.03 μM, repeat datapoints each shown
[7] = compound at 0.03 μM, repeat assays, each datapoint shown, read-out: Percentage inhibition of ligand binding, Adrenergic α1D
[8] = SC or PO, 4 hour study period (FIGS. 7-10)

Compound: C/C(=C\n1c2c(c3cc(C)ccc31)CN(C)CC2)c1ccc(C)nc1 [compound 186]
Percentage inhibition of ligand binding, Adrenergic α1D (0.1 μM) [1, 5]: 55% | inhibition at 0.03 µM [1, 6]: 31% | inhibition at 0.1 µM [1, 3]: 51%

Compound: Cc1ccc2c(c1)c1c(n2C2=C(c3ccncc3)CCC2)CCN(C)C1 [compound 114]
inhibition at 0.1 µM [1, 3]: 15%

Compound: C/C(=C\n1c2c(c3cc(C)ccc31)CN(C)CC2)c1sccc1C [compound 189]
inhibition at 0.1 µM [1, 3]: 16%

Compound: Cc1cnc2c(c1)c1c(n2CCc2ccc(C)nc2)CCN2CCCC12 (single isomer, unassigned) [74a, 10-methyl-7-(2-(6-methylpyridin-3-yl)ethyl)-2,3,5,6,7,11c-hexahydro-1H-pyrido[3′,2′:4,5]pyrrolo[2,3-g]indolizine]
inhibition at 0.03 µM [1, 7]: 42% | inhibition at 0.1 µM [1, 4]: 61%

Compound: Cc1ccc2c(c1)c1c(n2C2=C(c3ccc(C)s3)CCC2)CCN(C)C1 [compound 190, 2,8-dimethyl-5-(2-(5-methylthiophen-2-yl)cyclopent-1-enyl)-2,3,4,5-tetrahydro-1H-pyrido[4,3-b]indole]
inhibition at 0.1 µM [1, 3]: 31%

Compound: Cc1cnc2c(c1)c1c(n2CC(C)(O)c2cccnc2)CCN2CCCC12 (single isomer, unassigned) [26a]
systolic blood pressure lowering effects [2]: robust

Compound: Cc1ccc2c(c1)c1c(n2CC(O)c2ccncc2)CCN2CCCC12 (single isomer, unassigned) [129d]
heart rate ([2]; oral or iv bolus or i.v. escalating doses): tachycardia | effects on systolic blood pressure ([2]; oral or iv bolus or i.v. escalating doses (FIGS. 23-25)): robust

Compound: CCN1CCc2c(c3cc(C)ccc3n2CC(O)c2ccc(C)cc2)C1 (centres unmarked) [compound 203]
inhibition at 0.1 µM [1, 3]: 47%

Compound: COc1ccc(/C(C)=C/n2c3c(c4cc(Cl)ccc42)CCN(C)CC3)cc1F [compound 240]
Percentage inhibition of ligand binding, Adrenergic α1D (0.1 μM) [1, 5]: 47% | inhibition at 0.1 µM [1, 3]: 44%

Compound: Cc1ccc2c(c1)c1c(n2CC(N)c2ccncc2)CCN(C)C1 (single isomer, unassigned) [27a, 2-(1,2,3,4-tetrahydro-2,8-dimethylpyrido[4,3-b]indol-5-yl)-1-(pyridin-4-yl)ethanamine]
systolic blood pressure lowering effects [2]: robust | heart rate ([2]; when systolic blood pressure falls (data not shown)): neutral effect on heart rate

Compound: Cc1ccc2c(c1)c1c(n2CC(O)c2ccncc2)CCN(C)CC1 (single isomer, unassigned) [13b, 2-(3,9-dimethyl-2,3,4,5-tetrahydroazepino[4,5-b]indol-6(1H)-yl)-1-(pyridin-4-yl)ethanol]
systolic blood pressure [2, 8]: lowered systolic blood pressure

Compound: Cc1ccc2c(c1)c1c(n2CC(C)(O)c2cnccn2)CCN2CCCC12 (single isomer, unassigned) [176a]
systolic blood pressure lowering effects [2]: robust

Compound: COc1ccc(/C(C)=C/n2c3c(c4cc(C)ccc42)CCN(C)CC3)cc1F [compound 241]
Percentage inhibition of ligand binding, Adrenergic α1D (0.1 μM) [1, 5]: 49% | inhibition at 0.1 µM [1, 3]: 47%

Compound: Cc1ccc2c(c1)c1c(n2C2=C(c3ccc4c(ccn4C)c3)CCC2)CCN(C)C1 [compound 191, 2,8-dimethyl-5-(2-(1-methyl-1H-indol-5-yl)cyclopent-1-enyl)-2,3,4,5-tetrahydro-1H-pyrido[4,3-b]indole]
inhibition at 0.1 µM [1, 3]: 43%

Compound: C/C(=C\n1c2c(c3cc(C)ccc31)CN(C)CC2)c1cnc(N(C)C)nc1 [compound 187]
inhibition at 0.1 µM [1, 3]: 83%

Compound: C/C(=C\n1c2c(c3cc(C)ccc31)CN(C)CC2)c1ccncn1 [compound 101]
Percentage inhibition of ligand binding, Adrenergic α1D (0.1 μM) [1, 5]: 48% | inhibition at 0.1 µM [1, 3]: 45%

Compound: Cc1ccc2c(c1)c1c(n2CC(O)c2ccc(C(N)=O)nc2)CCN(C)C1 (single isomer, unassigned) [144b, 5-[2-(2,8-dimethyl-1,2,3,4-tetrahydro-pyrido[4,3-b]indol-5-yl)-1-hydroxy-ethyl]-pyridine-2-carboxylic acid amide]
systolic blood pressure ([2]; i.v. bolus in 2 minutes (FIG. 19)): marked reduction in systolic blood pressure

Now from value to molecule, other results behind:

inhibition at 0.1 µM [1, 3]: 74%
Compound: Cc1ccc(CCn2c3c(c4cc(C)ccc42)CN(C)CC3)cc1 [compound 180, 2,3,4,5-tetrahydro-2,8-dimethyl-5-(4-methylphenethyl)-1H-pyrido[4,3-b]indole]

inhibition at 0.1 µM [1, 4]: 17%
Compound: CCN1CCc2c(c3cc(C)ccc3n2CCc2ccncc2)C1 [compound 85]

inhibition at 0.1 µM [1, 4]: 13%
Compound: Cc1ccc2c(c1)c1c(n2CC2(c3ccccc3)OCCO2)CCN(C)C1 [compound 83]

inhibition at 0.1 µM [1, 3]: 32%
Compound: Cc1ccc(CCn2c3c(c4ccccc42)CN(C)CC3)cc1 [compound 181, 2,3,4,5-Tetrahydro-2-methyl-5-(4-methylphenethyl)-1H-pyrido[4,3-b]indole]

Percentage inhibition of ligand binding, Adrenergic α1D ([1]; compound at 0.03 μM, repeat assays, each datapoint shown, 0.03 µM): 11% | inhibition at 0.03 µM [1, 7]: 7% | Percentage inhibition of ligand binding, Adrenergic α1D ([1]; compound at 0.1 μM, repeat assays, each datapoint shown, 0.1 µM): 30% | inhibition at 0.1 µM [1, 4]: 25% | inhibition at 0.03 µM [1, 6]: 21% | inhibition at 0.1 µM [1, 3]: 32%
Compound: Cc1ccc2c(c1)c1c(n2CCc2ccc(CO)nc2)CCN(C)C1 [compound 91]

inhibition at 0.1 µM [1, 4]: 4%
Compound: Cc1ccc2c(c1)c1c(n2CC(C)(O)c2cccnc2)CCN(C)C1 (centres unmarked) [compound 5, 1-(1,2,3,4-tetrahydro-2,8-dimethylpyrido[4,3-b]indol-5-yl)-2-(pyridin-3-yl)propan-2-ol]

inhibition at 0.1 µM [1, 3]: 17%
Compound: Cc1cnc2c(c1)c1c(n2CCc2ccc(C)nc2)CCN(C)C1 [II-110, 3,6-dimethyl-9-(2-(6-methylpyridin-3-yl)ethyl)-6,7,8,9-tetrahydro-5H-pyrrolo[2,3-b:4,5-c′]dipyridine]

inhibition at 0.03 µM [1, 6]: 38%
Compound: CN1CCc2c(c3cccc(Cl)c3n2CCc2ccccc2)C1 [compound 216]

inhibition at 0.03 µM [1, 6]: 47% | inhibition at 0.1 µM [1, 3]: 58%
Compound: C/C(=C\n1c2c(c3cc(Cl)ccc31)CN(C)CC2)c1ccncc1 [compound 185, 8-chloro-2,3,4,5-tetrahydro-2-methyl-5-((E)-2-(pyridin-4-yl)prop-1-enyl)-1H-pyrido[4,3-b]indole]

inhibition at 0.1 µM [1, 4]: 12%
Compound: Cc1ccc2c(c1)c1c(n2CC(O)c2ccncc2)CCN(C)C1 (centres unmarked) [compound 3]
systolic blood pressure [2, 8]: dose-dependent reduction in systolic blood pressure

Percentage inhibition of ligand binding, Adrenergic α1D (0.1 μM) [1, 5]: 26% | inhibition at 0.03 µM [1, 6]: 3% | inhibition at 0.1 µM [1, 3]: 14%
Compound: Cc1ccc2c(c1)c1c(n2CNc2ccccn2)CCN(C)C1 [compound 120, (2,8-dimethyl-1,2,3,4-tetrahydro-pyrido[4,3-b]indol-5-ylmethyl)-pyridin-2-yl-amine]

inhibition at 0.1 µM [1, 3]: 36%
Compound: Cc1ccc(C(O)Cn2c3c(c4cc(C)ccc42)CN(C)CC3)cc1 (racemic) [compound 183, racemic-2-(1,2,3,4-tetrahydro-2,8-dimethylpyrido[4,3-b]indol-5-yl)-1-p-tolylethanol]

inhibition at 0.1 µM [1, 3]: 16%
Compound: CN1CCc2c(c3ccccc3n2CCc2ccccc2)C1 [compound 182, 2,3,4,5-Tetrahydro-2-methyl-5-phenethyl-1H-pyrido[4,3-b]indole]

inhibition at 0.1 µM [1, 3]: 52%
Compound: CCN1CCc2c(c3cc(C)ccc3n2CCc2ccc(C)cc2)C1 [compound 202]

Percentage inhibition of ligand binding, Adrenergic α1D (0.1 μM) [1, 5]: 35% | inhibition at 0.1 µM [1, 3]: 31%
Compound: Cc1ccc2c(c1)c1c(n2CC(C)(O)c2ccc(O)cc2)CCN(C)C1 (centres unmarked) [compound 98]

inhibition at 0.1 µM [1, 3]: 18%
Compound: CCN1CCc2c(c3cc(C)ccc3n2CCc2ccccc2)C1 [compound 201]

inhibition at 0.03 µM [1, 7]: 14% | inhibition at 0.1 µM [1, 4]: 37%
Compound: Cc1ccc2c(c1)c1c(n2CCc2cccnc2)CCN(C)C1 [compound 61]
